Read-outs that look alike come from different tables or passages of the source.
What was measured:
TASK-1 = tested on: TASK-1; parameters: method as in PMID 21946151; settings: HEK-293 cells; ref [38]; read-out: Reported IC50 TASK-1; cited from earlier work
KV1.5 = tested on: KV1.5; parameters: method as in PMID 33817777; settings: X. laevis oocytes, ref [15], read-out: Reported IC50 KV1.5, cited from earlier work
NaV1.5 [1] = settings: X. laevis oocytes, racemic (R/S) compound; ref [39]; read-out: Reported IC50 NaV1.5; cited from earlier work
h KV1.5 = molecular target: T1, h KV1.5 (Homo sapiens, UniProt P22460); experiment: TEVC recordings in X. laevis oocytes, KV1.5; format: cell-based; settings: 100 μM, +40 mV, oocytes, mean ± SD
T1 construct: h KV1.5 (KCNA5, NM_002234); expressed in transfected cells; host or cells: Xenopus laevis oocytes injected with cRNA
T1 sequence (P22460 whole entry): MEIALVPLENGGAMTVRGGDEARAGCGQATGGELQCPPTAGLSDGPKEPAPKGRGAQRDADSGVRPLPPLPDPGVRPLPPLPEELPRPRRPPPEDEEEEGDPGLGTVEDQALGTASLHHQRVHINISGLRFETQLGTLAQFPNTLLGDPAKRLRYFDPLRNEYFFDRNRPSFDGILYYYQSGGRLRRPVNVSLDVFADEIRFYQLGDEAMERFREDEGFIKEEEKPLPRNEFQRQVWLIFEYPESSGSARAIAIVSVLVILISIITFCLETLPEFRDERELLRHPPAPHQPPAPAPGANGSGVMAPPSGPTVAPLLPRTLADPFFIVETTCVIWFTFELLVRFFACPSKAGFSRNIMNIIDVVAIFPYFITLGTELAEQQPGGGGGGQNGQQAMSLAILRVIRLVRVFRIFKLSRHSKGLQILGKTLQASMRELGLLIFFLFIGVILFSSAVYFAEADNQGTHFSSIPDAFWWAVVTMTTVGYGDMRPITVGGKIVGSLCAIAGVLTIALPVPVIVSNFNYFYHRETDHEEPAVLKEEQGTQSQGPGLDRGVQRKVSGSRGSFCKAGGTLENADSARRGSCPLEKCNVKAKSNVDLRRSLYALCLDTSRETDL
Method: (§1) The two-electrode voltage clamp (TEVC) technique was used for electrophysiology tests. Channels were expressed in Xenopus laevis oocytes. The initial channel-blocking potential was assessed at 100 μM for the 10 synthesized compounds on TASK-1 and KV1.5 channels.
(§2) To obtain X. laevis oocytes, the frogs were anesthetized with 2 g/L of tricaine methanesulfonate, and the ovarian lobes were mechanically separated with forceps. The oocytes were incubated for 120 min in an OR2 solution containing in mM: NaCl 82.5, KCl 2, MgCl2 1, HEPES 5 (pH 7.5) supplemented with 2 mg/ml of collagenase II (Sigma) to remove residual connective tissue and obtain individual oocytes. Subsequently, the oocytes were washed with a ND96 solution containing in mM: NaCl 96, KCl 2, CaCl2 1.8, MgCl2 1, HEPES 5 (pH 7.5, adjusted with NaOH) and stored at 18 °C in ND96 solution supplemented with 1 ml of gentamicin (50 mg/L), sodium pyruvate (275 mg/L) and (90 mg/L) theophylline (inhibits further oocyte maturation) before and after RNA injection.
(§3) In order to overexpress the channel in the oocyte, each of the channels to be measured was subcloned (complementary DNA (cDNA); human TASK-1 (KCNK3, NM_002246), h KV1.5 (KCNA5, NM_002234), h NaV1.5 (hH1, M77235), TASK-4/TALK-2 (KCNK17, NM_AF358910), TREK-1 (KCNK2, AF004711) and Kir2.1 (KCNJ2, NM_017296) into pSGEM, pBF1 or pSP64 expression vector, and the cDNA was linearized with NheI or MluI. Complementary RNA (cRNA) was synthesized with the mMESSAGE mMACHINE-Kit (Ambion). The quality of the cRNA was tested on an agarose gel by electrophoresis. cRNA was quantified using a UV-Vis spectrophotometer (NanoDrop 2000). Subsequently, the channel was transfected in the oocytes in stages V and VI, for which […] (TASK-1, KV1.5 or TREK-1), 10 ng (NaV1.5 or TASK-4) o 2.5 ng (Kir2.1) per oocyte of cRNA was injected with a NanojectII microinjector (Drummond Scientific). The oocytes were stored in 24-well plates for 24 to 48 h at 18 °C. After this time, the overexpression of each channel was monitored through electrophysiology.
(§4) Two-electrode voltage clamp measurements were performed 24 or 48 h after cRNA injection at room temperature (20–22 °C) in ND96 recording solution with a TurboTEC-10CD (npi) amplifier and a Digidata 1550B (for TASK-1 and KV1.5) and 1440A (for NaV1.5) A/D converter from Axon Instruments. Micropipettes were fabricated from GB 150 TF-8P borosilicate glass capillaries (Science Products) elongated in a DMZ-Universal Puller (Zeitz, Germany). […] ND96 was used as bath solution. Data acquisition was performed using Clampex 10 software (Axon Instruments), and data were analyzed with ClampFit 10 (Axon Instruments) and Origin 7 (Origin Lab Corporation).
(§5) For compound inhibition testing, from a holding potential of −80 mV a first test pulse to 0 mV of 1 s duration was followed by a repolarization step at −80 mV for 1 s, directly followed by another 1 s test pulse at +40 mV. The sweep time interval was 10 s for KV1.5 and TASK-1 channels. For the NaV1.5 channel, the block was analyzed with voltage steps from a holding potential of −80 mV. A first depolarizing pulse to −30 mV of 50 ms duration was applied, followed by a 5 ms step to −80 mV. The sweep time interval was 5 s. The compounds were applied at different concentrations to determine the half-maximal inhibitory concentration (IC50), using a fit to the Hill equation.
(§6) To test for a putative voltage-dependence of the block by the compound 6f in KV1.5, a 1.5 s voltage step protocol from −80 to +80 mV with +20 mV increments was used. The holding potential was −80 mV and the sweep time interval was 10 s. Currents were analyzed at the end of the voltage pulse. For TASK-1, voltage-dependence of block was probed using a high-potassium solution (KD96) containing in mM: KCl 96, NaCl 2, CaCl2 1.8, MgCl2 1, HEPES 5, (pH 7.5, adjusted with KOH). From a holding potential of 0 mV, voltage was stepped from −80 mV to +80 mV for 1.5 s in +20 mV steps every 10 s. […]

human TASK-1 = human TASK-1 (Homo sapiens, UniProt O14649); experiment: TEVC recordings in X. laevis oocytes, TASK-1; format: cell-based; parameters: human TASK-1 (KCNK3, NM_002246); expressed in transfected cells; host or cells: Xenopus laevis oocytes injected with cRNA; settings: 100 μM, +40 mV, oocytes, mean ± SD
Sequence of human TASK-1 (O14649 whole entry): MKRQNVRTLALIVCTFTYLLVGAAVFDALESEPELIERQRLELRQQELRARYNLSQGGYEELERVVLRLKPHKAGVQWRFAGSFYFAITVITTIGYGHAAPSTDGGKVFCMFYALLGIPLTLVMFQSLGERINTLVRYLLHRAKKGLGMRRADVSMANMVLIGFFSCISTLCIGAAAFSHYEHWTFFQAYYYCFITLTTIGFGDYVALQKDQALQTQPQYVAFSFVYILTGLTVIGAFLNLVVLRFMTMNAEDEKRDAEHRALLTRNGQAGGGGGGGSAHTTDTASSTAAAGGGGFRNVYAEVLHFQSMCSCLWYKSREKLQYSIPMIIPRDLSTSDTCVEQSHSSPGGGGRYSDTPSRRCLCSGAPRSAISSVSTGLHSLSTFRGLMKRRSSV
Method: as §1, §2, §3, §4, §5, §6

h NaV1.5 = molecular target: T2, h NaV1.5 (Homo sapiens, UniProt Q14524, R1027Q); experiment: TEVC recordings in X. laevis oocytes, NaV1.5; format: cell-based; settings: 100 μM, −30 mV, oocytes, mean ± SD
T2 construct: expressed in transfected cells; host or cells: Xenopus laevis oocytes injected with cRNA
T2 sequence (Q14524 whole entry R1027Q): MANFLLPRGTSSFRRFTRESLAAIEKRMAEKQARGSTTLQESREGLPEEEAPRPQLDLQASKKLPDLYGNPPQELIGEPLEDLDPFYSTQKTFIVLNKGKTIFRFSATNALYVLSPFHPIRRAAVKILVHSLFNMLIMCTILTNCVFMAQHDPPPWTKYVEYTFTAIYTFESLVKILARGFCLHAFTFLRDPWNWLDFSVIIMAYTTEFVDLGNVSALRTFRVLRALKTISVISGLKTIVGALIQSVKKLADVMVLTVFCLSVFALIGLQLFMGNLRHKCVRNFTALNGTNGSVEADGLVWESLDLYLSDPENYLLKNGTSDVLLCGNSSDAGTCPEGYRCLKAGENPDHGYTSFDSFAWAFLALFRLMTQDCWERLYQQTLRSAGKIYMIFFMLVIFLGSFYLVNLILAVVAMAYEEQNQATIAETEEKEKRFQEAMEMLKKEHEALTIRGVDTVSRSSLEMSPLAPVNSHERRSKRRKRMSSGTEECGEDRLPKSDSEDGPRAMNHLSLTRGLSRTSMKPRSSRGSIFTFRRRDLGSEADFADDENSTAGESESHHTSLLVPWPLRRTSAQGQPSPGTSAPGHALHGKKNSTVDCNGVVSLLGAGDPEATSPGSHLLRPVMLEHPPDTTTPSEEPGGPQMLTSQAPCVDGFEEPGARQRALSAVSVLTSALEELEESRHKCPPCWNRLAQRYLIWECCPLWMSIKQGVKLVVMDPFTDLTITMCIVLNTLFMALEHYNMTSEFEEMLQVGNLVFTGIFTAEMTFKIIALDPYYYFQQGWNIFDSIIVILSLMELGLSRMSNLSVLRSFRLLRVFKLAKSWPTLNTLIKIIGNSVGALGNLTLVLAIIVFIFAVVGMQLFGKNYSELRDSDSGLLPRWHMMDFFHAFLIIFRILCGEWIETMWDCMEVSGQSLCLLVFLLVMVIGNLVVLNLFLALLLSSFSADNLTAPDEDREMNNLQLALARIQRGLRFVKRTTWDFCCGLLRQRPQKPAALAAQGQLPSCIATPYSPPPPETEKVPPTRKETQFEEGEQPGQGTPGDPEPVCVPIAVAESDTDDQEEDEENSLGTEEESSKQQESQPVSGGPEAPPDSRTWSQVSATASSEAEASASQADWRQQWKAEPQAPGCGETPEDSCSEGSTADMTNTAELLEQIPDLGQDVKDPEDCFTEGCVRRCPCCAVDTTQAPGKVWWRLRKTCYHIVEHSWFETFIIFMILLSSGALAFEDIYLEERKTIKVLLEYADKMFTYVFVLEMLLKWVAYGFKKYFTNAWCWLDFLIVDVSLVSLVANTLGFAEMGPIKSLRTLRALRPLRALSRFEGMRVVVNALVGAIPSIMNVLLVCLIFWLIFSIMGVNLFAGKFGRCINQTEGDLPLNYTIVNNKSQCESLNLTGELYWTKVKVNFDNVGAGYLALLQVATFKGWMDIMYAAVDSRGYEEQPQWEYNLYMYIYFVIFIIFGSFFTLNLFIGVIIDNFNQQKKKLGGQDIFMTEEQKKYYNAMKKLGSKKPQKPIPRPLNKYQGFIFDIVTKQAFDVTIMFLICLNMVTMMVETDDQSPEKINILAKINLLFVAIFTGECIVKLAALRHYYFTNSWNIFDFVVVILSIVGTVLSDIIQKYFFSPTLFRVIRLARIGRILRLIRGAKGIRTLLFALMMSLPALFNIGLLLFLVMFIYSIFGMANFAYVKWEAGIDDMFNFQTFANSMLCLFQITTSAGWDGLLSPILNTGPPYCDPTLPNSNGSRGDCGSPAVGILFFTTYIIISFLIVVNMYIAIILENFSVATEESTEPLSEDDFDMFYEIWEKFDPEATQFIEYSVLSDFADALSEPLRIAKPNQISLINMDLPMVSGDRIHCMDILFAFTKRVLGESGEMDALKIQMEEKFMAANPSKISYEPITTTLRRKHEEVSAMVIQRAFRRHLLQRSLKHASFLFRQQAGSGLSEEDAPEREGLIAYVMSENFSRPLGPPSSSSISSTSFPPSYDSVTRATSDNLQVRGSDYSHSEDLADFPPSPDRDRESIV
Method: as §2, §3, §4, §5
To test for a putative voltage-dependence of the block by the compound 6f in KV1.5, a 1.5 s voltage step protocol from −80 to +80 mV with +20 mV increments was used. The holding potential was −80 mV and the sweep time interval was 10 s. Currents were analyzed at the end of the voltage pulse. For TASK-1, voltage-dependence of block was probed using a high-potassium solution (KD96) containing in mM: KCl 96, NaCl 2, CaCl2 1.8, MgCl2 1, HEPES 5, (pH 7.5, adjusted with KOH). From a holding potential of 0 mV, voltage was stepped from −80 mV to +80 mV for 1.5 s in +20 mV steps every 10 s. To determine the current-voltage relationship of the NaV1.5 channel, the voltage was stepped for 50 ms from a holding potential of −80 mV to −70 mV to +80 mV in +10 mV increments every 5 s. The peak currents were subsequently plotted against the respective applied voltages.

human erythrocytes = experiment: Hemolysis assay; format: cell-based; settings: 0.2–400 μM, 2 hours, 37 °C
Method: To evaluate cytotoxicity, the hemolysis of the compounds with the best simultaneous blocking activity on the channels (6e, 6f, 7a, 7b and 7c) was considered, modifying the protocol of Chen 2018 ([112]). Thus, non-heparinized human blood was collected. Erythrocytes were washed three times in 1× PBS (phosphate-buffered saline: NaCl, 8 g/L; KCl, 0.2 g/L; Na2HPO4, 1.44 g/L; and KH2PO4, 0.24 g/L; pH 7.4) and then used to prepare a 3% red blood cell (RBC) suspension. The assay was performed in a 96-well polypropylene microplate.
The compounds were prepared from 200 mM stock solutions in DMSO. Subsequently, 1:2 serial dilutions were made in 1× PBS, with final concentrations from 400 to 0.2 μM to a final volume of 200 μl per well. The microplate was incubated for 2 h at 37 °C and centrifuged at 3400 rpm for 5 min. Finally, 100 μl of the supernatant was transferred and measured in a 96-well plate. Hemoglobin release was monitored by photometric analysis of the supernatant at 540 nm using an Epoch Microplate Spectrophotometer (BioTek Instruments, Inc. Winooski, Vermont 05404-0998).
A 3% RBC suspension treated with Tween 20 was used to obtain total lysis as a positive control. Other authors who performed hemolysis assays have also considered this and other detergents, such as Triton X-100 and Sodium Dodecyl Sulfate (SDS) as positive controls ([113], [114], [115], [116]). The negative control was a suspension of red blood cells with PBS. Each experiment was performed in triplicate at all concentrations used. The percentage of hemolysis was calculated with the following (Equation 1), where Ad: absorbance of the dilution, A0: absorbance of the blank (RBC suspension with PBS), and At: total absorbance (positive control).(1) %hemolysis=Ad−A0/At−A0x100

NaV1.5 [2] = settings: HEK-293 cells, racemic (R/S) compound, NaV1.5 open state; ref [40]; read-out: Reported IC50 NaV1.5; cited from earlier work
virtual atria with AF = tested on: virtual atria with AF; parameters: method as in PMID 37475475, PMID 38870348; settings: ref [74], [75]; cited from earlier work

SMILES: CCCCN1CCCCC1C(=O)Nc1c(C)cccc1C (stereo not shown) [Bupivacaine, bupivacaine]
- IC50 (TASK-1): 12.1 µM
- IC50 (KV1.5; racemic (R/S) compound): 31 µM
- IC50 (NaV1.5 [1]): 4.5 µM

SMILES: CCCCN(CCCC)CC(=O)Nc1ccccc1C [Compound 6a, 2-(dibutylamine)-N-(o-tolyl)acetamide]
- inhibition at 100 µM (h KV1.5): 12.3 to 35.7%
- inhibition at 100 µM (human TASK-1): 88.3 ± 6.57%

SMILES: CCCCN(CCCC)CC(=O)Nc1ccccc1CC [Compound 6b, 2-(dibutylamine)-N-(2-ethylphenyl)acetamide]
- inhibition at 100 µM (h KV1.5): 12.3 to 35.7%

SMILES: CCCCN(CCCC)CC(=O)Nc1cc(C)cc(C)c1 [Compound 6c, 2-(dibutylamine)-N-(3,5-dimethylphenyl)acetamide]
- inhibition at 100 µM (h KV1.5): 12.3 to 35.7%

SMILES: Cc1cc(C)cc(NC(=O)CN(C(C)C)C(C)C)c1 [Compound 6d, 2-(diisopropylamine)-N-(3,5-dimetylphenyl)acetamide]
- inhibition at 100 µM (h KV1.5): 12.3 ± 6.01%

SMILES: CCCCN(CCCC)CC(=O)Nc1ccc(OC)cc1 [Compound 6e, 2-(dibutylamine)-N-(4-methoxiphenyl)acetamide]
- inhibition at 100 µM (h NaV1.5): 81.2 ± 19%
- inhibition at 100 µM (h KV1.5): 42.2 ± 21.2%
- Hemolytic effect (human erythrocytes): no hemolytic effect

SMILES: CCCCN(CCCC)C(C)C(=O)Nc1ccc(OC)cc1 (stereo not shown) [Compound 7a, 2-(dibutylamine)-N-(4-methoxiphenyl)propanamide]
- inhibition at 100 µM (h NaV1.5): 11.9 ± 15%
- inhibition at 100 µM (h KV1.5): 38 ± 16.1%
- Hemolytic effect (human erythrocytes): no hemolytic effect

SMILES: CCCCN(CCCC)C(C)C(=O)Nc1ccccc1C (stereo not shown) [Compound 7b, 2-(dibutylamine)-N-(o-tolyl)propanamide]
- inhibition at 100 µM (h NaV1.5): 58.9 ± 21.2%
- inhibition at 100 µM (h KV1.5): 36.9 ± 13.6%
- Hemolytic effect (human erythrocytes): no hemolytic effect

SMILES: CCCCN(CCCC)C(C)C(=O)Nc1cccc2ccccc12 (stereo not shown) [Compound 7c, 2-(dibutylamine)-N-(naphthalen-1-yl)propanamide]
- inhibition at 100 µM (h NaV1.5): 31.1 ± 13.7%
- inhibition at 100 µM (h KV1.5): 35.7 ± 18.3%
- Hemolytic effect (human erythrocytes): no hemolytic effect
- inhibition at 100 µM (human TASK-1): 89.3 ± 6.56%

SMILES: CCCCN(CCCC)C(C)C(=O)Nc1cc(C)cc(C)c1 (stereo not shown) [Compound 7d, 2-(dibutylamine)-N-(3,5-dimetilphenyl)propanamide]
- inhibition at 100 µM (h KV1.5): 12.3 to 35.7%

SMILES: CCCN1CCCC[C@H]1C(=O)Nc1c(C)cccc1C [Ropivacaine, ropivacaine]
- IC50 (TASK-1): 17.6 µM
- IC50 (NaV1.5 [2]): 322 µM

SMILES: CCCCc1oc2ccccc2c1C(=O)c1cc(I)c(OCCN(CC)CC)c(I)c1 [amiodarone]
- Cardioversion efficacy in other simulation studies (virtual atria with AF): 57–80%

SMILES: O=C(NCC1CCCCN1)c1cc(OCC(F)(F)F)ccc1OCC(F)(F)F (stereo not shown) [flecainide]
- Cardioversion efficacy in other simulation studies (virtual atria with AF): 48–70%

SMILES: CCCN1CCCC[C@H]1C(=O)Nc1c(C)cccc1C [ropivacaineS]
- IC50 (KV1.5; S enantiomer): 129 µM

SMILES: COc1ccc(CCO[C@@H]2CCCC[C@H]2N2CC[C@@H](O)C2)cc1OC [vernakalant]
- Cardioversion efficacy in other simulation studies (virtual atria with AF): 42–57%

From PMC12131194, “Rational design, synthesis, and evaluation of novel polypharmacological compounds targeting NaV1.5, KV1.5, and K2P channels for atrial fibrillation” (The Journal of Biological Chemistry, 2025)
